According to ChEMBL document CHEMBL1201862, “PubChem BioAssay data set” (2004):
Calls of active or inactive are those of the source.

Tests used:
[1] = inhibitors of clade B AD8 Env fusion, dose response, cell-based, cherry-pick (AID 652062); type: functional;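 note: luciferase signal from cell-cell fusion driven by HIV-1 clade B AD8 Env; potency is for inhibitors of fusion seen as a drop in luminescence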
[2] = inhibitors of HIV Env-driven cell fusion, dose response, cherry-pick (AID 652057); type: functional, cell-based
[3] = off-target signal loss in HeLa-CEM21 co-culture – HeLa F-luc CTL cells, cherry-picked, counter-screen for HIV-1 Env fusion inhibitor project, dose response (AID 652040); type: functional, cell-based;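 note: potency for signal decrease marking cytotoxic or nonspecific inhibition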
[4] = CEM21 lymphoblast cell cytotoxicity, dose response, cytotoxicity control for viral fusion inhibitor project, CellTiter-Glo luminescence, cherry-picked (AID 652042); type: functional, cell-based;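 note: potency for signal decrease meaning cytotoxicity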
[5] = ZM109 Env clade C HIV-1 fusion inhibitors, dose response, HeLa effector, CEM target cells, luciferase, cherry-pick (AID 652058); type: functional, cell-based
[6] = target: T1, Small ubiquitin-related modifier 1 (Homo sapiens, UniProt P63165); assay: inhibitors of SUMO1 partner interactions, dose response, biochemical, FRET (AID 624383); type: functional; conditions: read-out: IC50_Mean
[7] = target: T1, Small ubiquitin-related modifier 1; assay: inhibitors of SUMO1 peptide binding, dose response, biochemical, fluorescence polarization, uHTS hits (AID 624382); type: functional; conditions: read-out: IC50_Mean
[8] = target: ADP-ribosylation factor GTPase-activating protein 1 (Rattus norvegicus, UniProt Q62848); assay: Fluorescence polarization-based biochemical high throughput dose response screening assay to identify inhibitors of ADP-ribosylation factor GTPase activating protein 1 (ARFGAP1).; type: functional
[9] = target: Arf-GAP with SH3 domain, ANK repeat and PH domain-containing protein 1 (Homo sapiens, UniProt Q9ULH1); type: functional;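 note: biochemical fluorescence polarization dose–response screen measuring inhibition of ASAP1; ASAP1 GAP domain stimulating GTP hydrolysis by truncated human ARF1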
[10] = Late-stage results from the probe development effort to identify activators of OPRM1 and OPRD1 heterodimer formation: luminescence-based cell-based dose response counterscreen assay to determine cytotoxicity of test compounds.; type: functional
[11] = target: T2, Short transient receptor potential channel 4 (Mus musculus, UniProt Q9QUQ5); assay: mouse TRPC4 channel activators, dose response, cell-based, HEK293 TRPC4/mu-opioid, Fluo-4 calcium (AID 434937); type: functional
T2 sequence (Q9QUQ5 whole entry): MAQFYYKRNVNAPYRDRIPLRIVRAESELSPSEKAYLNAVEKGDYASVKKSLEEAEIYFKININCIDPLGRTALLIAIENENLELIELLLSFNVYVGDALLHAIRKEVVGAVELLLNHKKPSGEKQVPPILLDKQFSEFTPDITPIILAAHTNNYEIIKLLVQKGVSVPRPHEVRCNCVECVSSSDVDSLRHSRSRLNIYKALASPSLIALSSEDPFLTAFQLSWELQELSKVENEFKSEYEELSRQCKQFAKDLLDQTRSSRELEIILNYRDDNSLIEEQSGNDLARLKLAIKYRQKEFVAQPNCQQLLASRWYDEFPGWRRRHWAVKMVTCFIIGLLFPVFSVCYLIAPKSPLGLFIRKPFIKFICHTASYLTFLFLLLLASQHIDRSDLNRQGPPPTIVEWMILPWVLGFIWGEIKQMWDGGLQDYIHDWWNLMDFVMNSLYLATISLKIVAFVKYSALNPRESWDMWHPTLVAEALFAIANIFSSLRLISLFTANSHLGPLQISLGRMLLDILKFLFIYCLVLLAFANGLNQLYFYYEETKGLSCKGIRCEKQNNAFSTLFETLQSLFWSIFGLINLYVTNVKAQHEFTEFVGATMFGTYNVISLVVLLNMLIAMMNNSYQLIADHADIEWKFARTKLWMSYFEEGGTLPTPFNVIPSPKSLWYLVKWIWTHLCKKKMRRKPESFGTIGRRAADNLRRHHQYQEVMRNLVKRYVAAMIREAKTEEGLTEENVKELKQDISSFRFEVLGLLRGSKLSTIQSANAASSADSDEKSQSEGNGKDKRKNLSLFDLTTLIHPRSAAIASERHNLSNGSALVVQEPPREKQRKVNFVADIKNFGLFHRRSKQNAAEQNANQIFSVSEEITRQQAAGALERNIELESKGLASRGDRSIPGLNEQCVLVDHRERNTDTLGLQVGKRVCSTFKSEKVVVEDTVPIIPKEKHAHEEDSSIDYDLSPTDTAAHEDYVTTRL

Mu-type opioid receptor = Mu-type opioid receptor (Homo sapiens, UniProt P35372); assay: (§1) Counterscreen for agonists of heterodimerization of the mu 1 (OPRM1) and delta 1 (OPRD1) opioid receptors: Luminescence-based cell-based high throughput dose response assay to identify agonists of OPRM1 homodimerization.; type: functional
[12] = target: 5-hydroxytryptamine receptor 5A (Homo sapiens, UniProt P47898); assay: Counterscreen for agonists of OPRM1-OPRD1 heterodimerization: luminescence-based cell-based high throughput dose response assay to identify agonists of 5-hydroxytryptamine (serotonin) 5A receptor (HTR5A). [Related pubchem assays (depositor defined):AID504326, AID504355, AID504692, AID504904, AID504905]; type: functional
[13] = target: Delta-type opioid receptor (Homo sapiens, UniProt P41143); assay: as §1, with “of OPRD1” for “of OPRM1”, “homodimerization. [Related pubchem assays (depositor defined):AID504326, AID504355, AID504692, AID504904, AID504905]” for “homodimerization.”; type: functional
[14] = intracellular Trypanosoma cruzi inhibitors in host cells – cell-based, plate reader, cherry-pick samples, set 3, dose response (AID 651818); type: functional;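 note: compounds incubated with infected cells for about four days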
[15] = NIH/3T3 fibroblast cytotoxicity, dose response, cytotoxicity control for T. cruzi growth inhibitor project, cell-based, cherry-pick samples, set 2 (AID 651817); type: functional; conditions: NIH3T3
[16] = A Cell-Based Confirmatory Screen for Compounds that Inhibit VEEV, TC-83 (8).; type: functional
[17] = Counterscreen for activators of the function of SWI/SNF related, matrix associated, actin dependent regulator of chromatin, subfamily a, member 2 (SMARCA2, BRM): Luminescence-based cell-based high throughput dose response assay to identify non-selective compounds using the VP16 reporter assay.; type: functional
[18] = target: SWI/SNF-related matrix-associated actin-dependent regulator of chromatin subfamily A member 2 (Homo sapiens, UniProt P51531); assay: Luminescence-based cell-based high throughput dose response assay to identify activators of the function of SWI/SNF related, matrix associated, actin dependent regulator of chromatin, subfamily a, member 2 (SMARCA2, BRM).; type: functional
INS1 = assay: beta cell apoptosis inhibitors, cytokine rescue, dose response, luminescence, retest (AID 449756); type: functional, cell-based; conditions: Rattus norvegicus;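 note: cell death triggered by IL-1 beta plus TNF-alpha plus IFN-gamma mixture; protective hits raise ATP signal compared with cytokine alone wells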
[19] = target: Photoreceptor-specific nuclear receptor (Homo sapiens, UniProt Q9Y5X4); type: functional, cell-based;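 note: CHO-S cells with Gal4-NCOR and VP16-NR2E3 two-hybrid luciferase reporter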
[20] = HEK293T cell cytotoxicity, dose response, cytotoxicity control for HIV Vif inhibitor project, cherry-picks (AID 652208); type: functional, cell-based

T1 sequence (P63165 whole entry): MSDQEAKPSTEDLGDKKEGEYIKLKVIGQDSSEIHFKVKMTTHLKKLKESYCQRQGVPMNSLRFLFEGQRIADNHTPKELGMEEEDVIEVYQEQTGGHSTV
5-hydroxytryptamine receptor 5A, sequence (P47898 whole entry): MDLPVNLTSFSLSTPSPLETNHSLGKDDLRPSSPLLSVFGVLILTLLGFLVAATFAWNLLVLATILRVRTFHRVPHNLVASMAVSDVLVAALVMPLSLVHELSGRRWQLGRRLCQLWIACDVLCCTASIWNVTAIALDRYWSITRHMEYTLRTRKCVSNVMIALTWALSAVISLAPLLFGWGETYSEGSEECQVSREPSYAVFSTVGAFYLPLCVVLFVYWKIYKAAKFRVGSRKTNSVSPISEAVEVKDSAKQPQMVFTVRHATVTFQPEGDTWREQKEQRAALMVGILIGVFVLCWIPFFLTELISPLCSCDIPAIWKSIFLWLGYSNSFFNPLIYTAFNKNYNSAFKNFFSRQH
Mu-type opioid receptor, sequence (P35372 whole entry): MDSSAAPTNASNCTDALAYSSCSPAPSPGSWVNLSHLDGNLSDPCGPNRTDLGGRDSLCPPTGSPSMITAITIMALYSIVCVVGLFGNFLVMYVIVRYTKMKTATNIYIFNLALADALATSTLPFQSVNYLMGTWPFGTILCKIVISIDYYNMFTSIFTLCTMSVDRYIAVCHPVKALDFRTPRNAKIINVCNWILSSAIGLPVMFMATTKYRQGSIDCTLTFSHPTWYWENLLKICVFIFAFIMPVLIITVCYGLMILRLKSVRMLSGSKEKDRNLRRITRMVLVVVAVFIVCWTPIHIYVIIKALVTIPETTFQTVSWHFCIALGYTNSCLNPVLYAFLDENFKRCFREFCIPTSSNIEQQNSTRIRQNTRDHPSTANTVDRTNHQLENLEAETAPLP
Arf-GAP with SH3 domain, ANK repeat and PH domain-containing protein 1, sequence (Q9ULH1 whole entry, the tested form may be a part): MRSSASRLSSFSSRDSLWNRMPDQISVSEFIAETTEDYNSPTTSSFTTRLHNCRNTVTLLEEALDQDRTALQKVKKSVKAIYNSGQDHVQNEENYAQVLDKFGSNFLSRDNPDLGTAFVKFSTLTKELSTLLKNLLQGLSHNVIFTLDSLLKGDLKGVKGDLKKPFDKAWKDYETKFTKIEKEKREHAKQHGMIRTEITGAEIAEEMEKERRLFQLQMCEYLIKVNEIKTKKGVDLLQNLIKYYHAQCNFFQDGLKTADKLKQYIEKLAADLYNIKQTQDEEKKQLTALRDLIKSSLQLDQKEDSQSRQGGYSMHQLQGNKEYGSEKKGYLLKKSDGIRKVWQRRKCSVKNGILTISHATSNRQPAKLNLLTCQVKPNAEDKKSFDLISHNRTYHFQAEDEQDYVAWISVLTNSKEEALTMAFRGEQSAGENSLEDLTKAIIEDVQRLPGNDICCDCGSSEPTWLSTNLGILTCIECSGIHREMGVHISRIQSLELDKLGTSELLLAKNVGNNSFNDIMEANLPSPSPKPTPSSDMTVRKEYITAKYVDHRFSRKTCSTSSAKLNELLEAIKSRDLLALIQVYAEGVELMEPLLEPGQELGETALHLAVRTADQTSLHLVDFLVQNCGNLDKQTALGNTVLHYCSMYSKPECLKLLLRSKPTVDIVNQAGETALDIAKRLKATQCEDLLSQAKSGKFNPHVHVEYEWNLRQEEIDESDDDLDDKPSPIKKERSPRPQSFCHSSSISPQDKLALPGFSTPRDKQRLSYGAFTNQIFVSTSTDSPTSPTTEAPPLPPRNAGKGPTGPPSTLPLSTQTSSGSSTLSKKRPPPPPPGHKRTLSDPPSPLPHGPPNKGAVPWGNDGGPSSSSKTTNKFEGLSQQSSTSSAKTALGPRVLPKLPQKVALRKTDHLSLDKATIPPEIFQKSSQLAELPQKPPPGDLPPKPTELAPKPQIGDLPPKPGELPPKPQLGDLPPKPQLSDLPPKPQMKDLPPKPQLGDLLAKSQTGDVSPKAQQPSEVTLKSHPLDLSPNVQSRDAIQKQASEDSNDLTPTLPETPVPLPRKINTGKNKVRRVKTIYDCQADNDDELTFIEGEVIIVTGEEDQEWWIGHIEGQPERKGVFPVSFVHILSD
SWI/SNF-related matrix-associated actin-dependent regulator of chromatin subfamily A member 2, sequence (P51531 whole entry): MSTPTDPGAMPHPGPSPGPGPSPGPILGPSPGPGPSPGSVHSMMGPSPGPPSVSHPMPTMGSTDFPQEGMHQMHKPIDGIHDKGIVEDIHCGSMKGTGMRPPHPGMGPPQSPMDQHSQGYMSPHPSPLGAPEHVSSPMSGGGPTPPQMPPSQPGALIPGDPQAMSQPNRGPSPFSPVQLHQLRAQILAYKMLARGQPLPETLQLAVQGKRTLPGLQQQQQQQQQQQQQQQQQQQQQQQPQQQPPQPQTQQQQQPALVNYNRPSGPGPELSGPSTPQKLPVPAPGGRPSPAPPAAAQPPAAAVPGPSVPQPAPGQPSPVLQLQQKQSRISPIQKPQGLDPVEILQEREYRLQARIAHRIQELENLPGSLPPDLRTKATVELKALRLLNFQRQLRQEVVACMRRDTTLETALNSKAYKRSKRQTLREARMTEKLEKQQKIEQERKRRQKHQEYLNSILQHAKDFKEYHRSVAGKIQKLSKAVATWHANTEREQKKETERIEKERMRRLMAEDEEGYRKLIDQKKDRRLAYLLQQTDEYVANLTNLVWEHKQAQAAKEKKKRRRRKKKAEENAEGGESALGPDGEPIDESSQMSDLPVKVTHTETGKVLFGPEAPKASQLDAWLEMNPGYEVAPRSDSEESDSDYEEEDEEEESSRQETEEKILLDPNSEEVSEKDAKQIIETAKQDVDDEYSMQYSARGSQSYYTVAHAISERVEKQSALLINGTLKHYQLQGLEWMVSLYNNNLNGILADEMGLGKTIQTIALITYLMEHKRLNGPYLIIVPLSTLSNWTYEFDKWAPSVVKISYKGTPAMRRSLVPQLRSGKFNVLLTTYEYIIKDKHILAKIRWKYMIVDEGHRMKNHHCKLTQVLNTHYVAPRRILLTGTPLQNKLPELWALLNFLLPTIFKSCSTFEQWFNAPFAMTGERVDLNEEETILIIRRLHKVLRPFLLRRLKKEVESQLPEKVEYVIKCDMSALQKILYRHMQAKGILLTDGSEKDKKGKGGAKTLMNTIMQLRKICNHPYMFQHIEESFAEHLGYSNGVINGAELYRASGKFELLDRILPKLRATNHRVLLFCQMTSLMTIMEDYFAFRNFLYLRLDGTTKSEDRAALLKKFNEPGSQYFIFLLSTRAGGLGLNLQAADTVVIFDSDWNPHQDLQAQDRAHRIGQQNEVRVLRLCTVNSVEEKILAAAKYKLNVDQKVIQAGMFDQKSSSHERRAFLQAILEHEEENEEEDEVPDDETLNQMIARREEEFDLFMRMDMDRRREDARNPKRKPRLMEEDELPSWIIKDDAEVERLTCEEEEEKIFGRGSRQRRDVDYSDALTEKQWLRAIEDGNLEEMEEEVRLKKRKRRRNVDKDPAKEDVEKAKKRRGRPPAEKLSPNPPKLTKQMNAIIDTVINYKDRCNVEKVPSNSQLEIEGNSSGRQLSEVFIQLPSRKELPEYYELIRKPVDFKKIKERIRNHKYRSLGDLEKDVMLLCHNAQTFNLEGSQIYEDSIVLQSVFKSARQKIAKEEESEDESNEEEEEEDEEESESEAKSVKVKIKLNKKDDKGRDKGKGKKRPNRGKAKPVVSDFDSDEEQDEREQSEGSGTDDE
Delta-type opioid receptor, sequence (P41143 whole entry): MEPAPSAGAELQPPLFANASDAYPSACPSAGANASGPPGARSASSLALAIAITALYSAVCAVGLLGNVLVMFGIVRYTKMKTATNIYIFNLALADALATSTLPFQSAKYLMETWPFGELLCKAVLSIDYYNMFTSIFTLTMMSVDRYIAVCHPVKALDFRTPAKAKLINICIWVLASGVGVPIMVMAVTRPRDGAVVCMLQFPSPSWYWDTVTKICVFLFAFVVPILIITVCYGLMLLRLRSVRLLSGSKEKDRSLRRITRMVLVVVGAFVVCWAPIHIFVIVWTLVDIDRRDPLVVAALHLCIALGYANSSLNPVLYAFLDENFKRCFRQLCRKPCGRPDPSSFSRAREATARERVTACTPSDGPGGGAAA
ADP-ribosylation factor GTPase-activating protein 1, sequence (Q62848 whole entry, the tested form may be a part): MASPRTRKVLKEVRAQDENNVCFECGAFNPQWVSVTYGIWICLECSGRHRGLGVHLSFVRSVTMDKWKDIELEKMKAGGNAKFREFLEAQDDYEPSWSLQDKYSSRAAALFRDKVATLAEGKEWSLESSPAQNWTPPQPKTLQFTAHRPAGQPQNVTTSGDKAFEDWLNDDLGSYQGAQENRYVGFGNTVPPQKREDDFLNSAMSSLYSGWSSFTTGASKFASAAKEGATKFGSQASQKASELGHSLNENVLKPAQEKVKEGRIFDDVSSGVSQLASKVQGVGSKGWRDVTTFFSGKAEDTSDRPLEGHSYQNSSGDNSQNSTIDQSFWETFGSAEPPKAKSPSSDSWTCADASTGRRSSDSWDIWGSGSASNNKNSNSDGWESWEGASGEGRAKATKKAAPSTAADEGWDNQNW
Photoreceptor-specific nuclear receptor, sequence (Q9Y5X4 whole entry, the tested form may be a part): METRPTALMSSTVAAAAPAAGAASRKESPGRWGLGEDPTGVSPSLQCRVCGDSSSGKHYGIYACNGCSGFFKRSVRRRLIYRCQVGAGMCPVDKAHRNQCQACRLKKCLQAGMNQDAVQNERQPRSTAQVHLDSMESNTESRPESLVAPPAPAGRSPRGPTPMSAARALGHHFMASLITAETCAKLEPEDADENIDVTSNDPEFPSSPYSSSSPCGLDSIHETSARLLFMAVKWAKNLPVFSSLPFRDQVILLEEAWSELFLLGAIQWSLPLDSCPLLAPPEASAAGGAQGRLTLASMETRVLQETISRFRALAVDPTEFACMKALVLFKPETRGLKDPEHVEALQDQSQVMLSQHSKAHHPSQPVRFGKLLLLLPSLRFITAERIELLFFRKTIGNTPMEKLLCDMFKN

Question: Which AC50 [1] does the source give for `Cc1cc(C)nc(Nc2nc(C(N)CCc3ccccc3)cs2)n1` (configuration not stated) here?
Answer: 18.2 µM (active)

Question: What about the AC50 [2] of the same compound?
Answer: 4.75 µM (active)

Question: What about the AC50 [3] of the same compound?
Answer: 6.75 µM (active)

Question: And the AC50 [4]?
Answer: 40.1 µM (active)

Question: What about the AC50 [5] of the same compound?
Answer: 3.65 µM (active)

Question: Which IC50 [6] does the source give for `CC(=O)Nc1ccc(C(=O)Nc2nc(-c3cccnc3)cs2)cc1` here?
Answer: 12.1 µM (active)

Question: And the IC50 [7]?
Answer: > 66.6 µM (inactive)

Question: And the IC50 [8]?
Answer: 36.6 µM (inactive)

Question: And the IC50 [9]?
Answer: 31.1 µM (inactive)

Question: Which CC50 [10] does the source give for `CCOC(=O)C1(CCc2ccccc2)CCN(Cc2ccc(NC(C)=O)cc2)CC1` here?
Answer: > 10 µM (inactive)

Question: What about the EC50 [11] of the same compound?
Answer: 0.0267 µM (active)

Question: What about the EC50 (Mu-type opioid receptor) of the same compound?
Answer: 24.3 µM (inactive)

Question: And the EC50 [12]?
Answer: > 92.5 µM (inactive)

Question: What about the EC50 [13] of the same compound?
Answer: 4.5 µM (active)

Question: With `C[C@@H]1CN([C@@H](C)CO)C(=O)c2cccc(NC(=O)c3ccncc3)c2O[C@H]1CN(C)Cc1ccc(Cl)c(Cl)c1` as the compound, how does the AC50 [14] read?
Answer: 0.08 µM (active)

Question: And the AC50 [15]?
Answer: 16.6 µM (active)

Question: Which IC50 [16] does the source give for `O=c1nc(Nc2ccc(OCc3ccccc3)cc2)sc2ncc(F)cc12` here?
Answer: 1.42 µM (active)

Question: For `Cc1cnc(NC(=O)CN2CCN(c3ccccn3)CC2)s1`, which EC50 [17] is on record?
Answer: > 91.2 µM (inactive)

Question: And the EC50 [18]?
Answer: > 91.2 µM (inactive)

Question: And the AC50 (INS1)?
Answer: 6.06 µM (active)

Question: And the IC50 [19]?
Answer: 1.17 µM (active)

Question: What about the AC50 [20] of the same compound?
Answer: > 52 µM (inactive)
